The structures appear in SMILES notation. pIC50: −log10 of the molar value.

Consider one molecule from PMC9101188, “Human α-Defensin-6 Neutralizes Clostridioides difficile Toxins TcdA and TcdB by Direct Binding” (International Journal of Molecular Sciences, 2022).

The test system of one data set is TcdB autoprotease domain. The experiment in a line: In vitro autoprocessing of TcdB (InsP6-induced autoprotease activity). Format: biochemical, C. difficile VPI 10463. Conditions: TcdB 2 µg, InsP6 1 mM; α-def-6 3 µM, 9 µM; 1 h, 37 °C, pH 7.4; SDS-PAGE, Coomassie (n = 2). The method, then:
(§1) The flow rate was 25 µL/min. […] A representative gel is shown (n = 2). […] GAPDH served as the loading control. A representative Western blot is shown.
The effects of α-def-6 on TcdB autoprocessing by its intrinsic cysteine protease activity were analyzed. […] Inositol hexakisphosphate (1 mM, Santa Cruz Biotechnology, Dallas, TX, USA) was added to the samples to induce autoprocessing. N-Ethylmaleimide (1 mM, Sigma Aldrich by Merck KGaA, Darmstadt, Germany) served as positive control for the inhibition of TcdB-autoprocessing. The reactions were stopped by addition of a Laemmli buffer and heat denaturation (95 °C). For the analysis, the samples were electrophoresed on 8% SDS polyacrylamide gels, and proteins were visualized by Coomassie staining.

The next data set has as its system TcdB glucosyltransferase. Description: In vitro glucosylation of Rac1 by TcdB (CaCo-2 lysate, Western blot). Format: biochemical, C. difficile VPI 10463. The settings on record: CaCo-2 cell lysate 40 µg, TcdB 50 ng; α-def-6 up to 12 µM; 2 h, 37 °C, pH 7.5; Western blot (n = 4). The method, then: as §1
To evaluate the potential effects of α-def-6 on TcdB glucosyltransferase activity, 40 µg of CaCo-2 cell lysate were used as a source of Rac1 and incubated with TcdB (50 ng) in glucosylation buffer (50 mM HEPES, 100 mM KCl, 2 mM MgCl2, 1 mM MnCl2, 100 mg/L BSA, pH 7.5) in a final volume of 20 µL. Two concentrations of α-def-6 (6 µM, 12 µM) were tested. Reactions were allowed to proceed for 2 h at 37 °C and stopped with the addition of a Laemmli buffer and heating for 10 min at 95 °C. The samples were loaded onto a 12.5% polyacrylamide gel and separated via SDS-PAGE followed by Western blotting. Unspecific binding sites were blocked with 5% (w/v) skim milk powder diluted in PBS with 0.1% (v/v) Tween®20 (PBS-T, pH 7.4) for 1 h at RT. The glucosylation status of Rac1 was assessed by probing with a mouse anti-Rac1-antibody (1:500, #610651, BD Biosciences, Franklin Lakes, NJ, USA) specifically directed against non-glucosylated Rac1 overnight at 4 °C. After washing, the membrane was incubated with a secondary horseradish-peroxidase (HRP)-conjugated goat-anti-mouse antibody (1:2500, #31430, Invitrogen by Thermo Fisher Scientific, Waltham, MA, USA) for 1 h at RT. Signals were detected using the ECL-system. […]

The target of a further data set is T1, TcdB-DL488 (Clostridioides difficile, UniProt P18177).
T1 construct: The native toxins TcdA and TcdB from C. difficile VPI 10463 were expressed and purified; made in house; host or cells: C. difficile VPI 10463 (inferred from "native toxins")
T1 sequence (P18177 whole entry): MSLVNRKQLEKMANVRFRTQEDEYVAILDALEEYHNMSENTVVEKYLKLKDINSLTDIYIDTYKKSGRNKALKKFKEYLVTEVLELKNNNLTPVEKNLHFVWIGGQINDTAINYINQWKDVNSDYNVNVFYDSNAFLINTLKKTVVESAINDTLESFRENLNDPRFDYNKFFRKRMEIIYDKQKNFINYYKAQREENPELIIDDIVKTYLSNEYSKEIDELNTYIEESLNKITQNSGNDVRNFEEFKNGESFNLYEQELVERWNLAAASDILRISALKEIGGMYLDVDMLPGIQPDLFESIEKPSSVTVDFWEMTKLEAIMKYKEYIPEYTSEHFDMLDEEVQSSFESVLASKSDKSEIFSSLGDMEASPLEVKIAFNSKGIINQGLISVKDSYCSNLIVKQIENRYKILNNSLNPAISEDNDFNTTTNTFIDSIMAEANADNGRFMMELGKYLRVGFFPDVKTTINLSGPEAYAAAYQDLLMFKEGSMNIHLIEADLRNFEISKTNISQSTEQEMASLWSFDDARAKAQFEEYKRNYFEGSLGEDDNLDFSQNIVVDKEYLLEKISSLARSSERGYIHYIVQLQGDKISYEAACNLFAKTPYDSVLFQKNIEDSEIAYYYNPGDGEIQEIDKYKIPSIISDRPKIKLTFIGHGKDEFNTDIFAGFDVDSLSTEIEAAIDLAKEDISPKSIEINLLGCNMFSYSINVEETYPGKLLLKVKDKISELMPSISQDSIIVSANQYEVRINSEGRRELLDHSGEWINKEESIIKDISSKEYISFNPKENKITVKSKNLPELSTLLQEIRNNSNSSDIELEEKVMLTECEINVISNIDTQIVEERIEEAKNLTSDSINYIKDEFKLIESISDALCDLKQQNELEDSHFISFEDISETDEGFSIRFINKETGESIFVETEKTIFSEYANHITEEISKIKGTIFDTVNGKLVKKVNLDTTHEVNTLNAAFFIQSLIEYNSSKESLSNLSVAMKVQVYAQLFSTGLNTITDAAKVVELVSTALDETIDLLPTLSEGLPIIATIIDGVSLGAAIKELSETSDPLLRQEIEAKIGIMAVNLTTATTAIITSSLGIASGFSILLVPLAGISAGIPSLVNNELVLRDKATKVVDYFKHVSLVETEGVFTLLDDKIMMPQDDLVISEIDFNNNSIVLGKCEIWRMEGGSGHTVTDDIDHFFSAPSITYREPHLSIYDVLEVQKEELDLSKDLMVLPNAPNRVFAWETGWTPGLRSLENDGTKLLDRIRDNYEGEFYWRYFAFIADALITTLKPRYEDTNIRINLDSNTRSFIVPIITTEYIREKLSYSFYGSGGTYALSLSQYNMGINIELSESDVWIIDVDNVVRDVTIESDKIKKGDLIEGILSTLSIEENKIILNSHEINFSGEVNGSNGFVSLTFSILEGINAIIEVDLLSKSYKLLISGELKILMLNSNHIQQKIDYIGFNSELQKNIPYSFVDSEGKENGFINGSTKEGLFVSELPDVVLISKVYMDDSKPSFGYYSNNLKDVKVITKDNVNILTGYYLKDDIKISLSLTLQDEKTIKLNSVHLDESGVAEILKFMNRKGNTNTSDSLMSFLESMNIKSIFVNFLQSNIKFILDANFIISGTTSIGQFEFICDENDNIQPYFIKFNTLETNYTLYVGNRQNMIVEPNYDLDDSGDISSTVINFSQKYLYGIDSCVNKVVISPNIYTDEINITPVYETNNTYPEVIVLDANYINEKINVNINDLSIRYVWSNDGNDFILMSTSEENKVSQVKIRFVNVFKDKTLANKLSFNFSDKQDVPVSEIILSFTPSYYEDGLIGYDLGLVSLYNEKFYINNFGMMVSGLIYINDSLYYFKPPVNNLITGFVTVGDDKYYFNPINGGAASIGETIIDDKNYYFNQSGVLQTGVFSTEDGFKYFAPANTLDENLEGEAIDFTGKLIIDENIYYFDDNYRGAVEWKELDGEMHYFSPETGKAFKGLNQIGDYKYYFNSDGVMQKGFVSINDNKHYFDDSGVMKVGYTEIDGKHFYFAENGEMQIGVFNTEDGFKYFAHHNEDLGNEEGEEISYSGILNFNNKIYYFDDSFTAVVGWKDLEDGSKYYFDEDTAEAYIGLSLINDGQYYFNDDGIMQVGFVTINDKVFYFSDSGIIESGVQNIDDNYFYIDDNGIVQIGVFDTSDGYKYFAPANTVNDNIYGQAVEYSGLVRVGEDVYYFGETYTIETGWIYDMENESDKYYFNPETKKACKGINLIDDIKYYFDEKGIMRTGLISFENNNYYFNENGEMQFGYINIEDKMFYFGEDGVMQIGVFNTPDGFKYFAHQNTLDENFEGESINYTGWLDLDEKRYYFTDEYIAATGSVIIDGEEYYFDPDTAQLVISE
Description: Aggregation of TcdB-DL488 over time in the absence of cells (fluorescence microscopy). Set-up: species or system C. difficile VPI 10463. The settings on record: α-def-6 6 µM, TcdB-DL488 30 nM in PBS, 37 °C. The method, then:
Cells were fixed and permeabilized. […] Scale bars correspond to 50 µm. […] TcdB was detected.
Simultaneously the same volume of PBS was exposed to DyLight^TM 488 NHS-Ester to serve as a negative control in experiments. To remove free fluorescence dye, the samples were rebuffered by passing through Zeba^TM Spin Desalting Columns via centrifugation.
Aggregation was allowed to proceed for 30 min at 37 °C. Images were taken every second for the first 5 min and every 10 s for additional 25 min. Images were processed using ImageJ.

Data set [1] deals with Vero cells. Format: cell-based, African green monkey.
In data set [2] the test system is Vero cells. It is filed as cell-based, African green monkey. This is another data set of the same source.
The subject of data set [3] is CaCo-2 monolayer. It is filed as cell-based, human.
Another data set concerns TcdB. The settings on record: SPR, 2400 RUs biotinylated TcdB on streptavidin chip; α-def-6 0.1 to 6 µM; 10 mM HEPES, 150 mM NaCl, 50 µM EDTA, 0.005% Tween 20, pH 7.0; 25 µL/min, 25 °C; 4 min injection.
In data set [4] the test system is Vero cells.
In data set [5] the test system is CaCo-2 monolayer.
The subject of the next data set is zebrafish embryos. Conditions: in vivo.
In another data set the test system is SARS-CoV-2. Conditions: ref [55]; cited from earlier work. An excerpt:
There is increasing evidence that α-def-6 represents an outlier among the α-defensins, which is also noticeable in the context of bacterial toxins. Anti-toxin activities have already been described for several α-defensins.

`CC[C@H](C)[C@@H]1NC(=O)CNC(=O)[C@H](CCSC)NC(=O)[C@H](C(C)C)NC(=O)[C@H]([C@@H](C)O)NC(=O)[C@@H]2CSSC[C@@H]3NC(=O)[C@H](Cc4c[nH]cn4)NC(=O)[C@@H](NC(=O)[C@@H](NC(=O)[C@H](Cc4ccccc4)NC(=O)[C@H](C)N)[C@@H](C)O)CSSC[C@@H](C(=O)N[C@@H](CC(C)C)C(=O)O)NC(=O)[C@H](CSSC[C@H](NC(=O)[C@H](CO)NC(=O)[C@H](CCCNC(=N)N)NC(=O)[C@H](CCCNC(=N)N)NC3=O)C(=O)N[C@@H](Cc3ccc(O)cc3)C(=O)N[C@@H](CO)C(=O)N[C@@H]([C@@H](C)O)C(=O)N[C@@H](CCC(=O)O)C(=O)N[C@@H](Cc3ccc(O)cc3)C(=O)N[C@@H](CO)C(=O)N[C@@H](Cc3ccc(O)cc3)C(=O)NCC(=O)N[C@@H]([C@@H](C)O)C(=O)N2)NC(=O)[C@H](Cc2ccccc2)NC(=O)[C@H](CCCNC(=N)N)NC(=O)[C@H](Cc2c[nH]cn2)NC(=O)[C@H](CC(N)=O)NC1=O` [α-def-6]: the “release of the glucosyltransferase domain by the autoprotease domain (effect of substance)” value in the data set with TcdB autoprotease domain is “not affected”. In the data set with TcdB glucosyltransferase, the “inhibition of enzymatic activity of the glucosyltransferase domain of TcdB” value is recorded as “almost no inhibition”. In addition, at TcdB-DL488, the “time of formation of toxin-defensin aggregates” value is recorded as “within a few seconds to minutes”. Also, the “formation of toxin-defensin complexes” value at TcdB-DL488 (0.5 h, no cells (n ≥ 2)) is “very fast and distinct formation of large toxin-defensin complexes”. Moreover, in the data set with Vero cells [1], the “inhibition of toxin effects on cells, TcdA” value is “clear inhibition” and the “protection of cells against TcdA” value was “clear protection”. In the data set on Vero cells [2], the “inhibition of toxin effects on cells, TcdA + TcdB” value is “clear inhibition” and the “protection of cells against TcdA + TcdB” value was “clear protection”. Further, the “TEER, TcdA” value with CaCo-2 monolayer [3] is listed as “clear delay in TEER-reduction”. For the same molecule, the “interaction with immobilized TcdB” value in the data set with TcdB is listed as “direct, concentration-dependent interaction”. For the same molecule, in the data set on Vero cells [4], the “inhibition of toxin effects on cells, TcdB” value is given as “clear inhibition”; the “protection of cells against TcdB” value was “almost complete protection”; the “reduction of the amount of rounded cells” value is on record as “clear concentration-dependent reduction of the amount of rounded cells”. In addition, the negative-log IC50 (pIC50) in the data set on Vero cells [4] (5 h) was approximately 6.30. In the data set with CaCo-2 monolayer [5], the “TEER, TcdB” value is on record as “clear delay in TEER-reduction” and the “cytotoxic effects on the monolayer, TcdB” value is recorded as “time-dependent inhibition of the cytotoxic effects on the monolayer”. For the same molecule, in the data set with zebrafish embryos, the “effect on TcdB-induced cytotoxicity and cardiotoxicity” value was “very efficiently reversed both the cytotoxic and cardiotoxic effects of TcdB”; the “toxicity of α-def-6 alone” value was “did not show any toxicity”. The “prevention of infection of cells with SARS-CoV-2” value in the data set on SARS-CoV-2 is on record as “cannot prevent the infection of cells with SARS-CoV-2”.
